{"source": "PubChem BioAssay (NCI)", "test_in_all_cases": "inhibition of tumour cell growth, NCI panel, 48 h", "key": {"OVCAR-8 ovarian": {"tested_on": "OVCAR-8 ovarian"}, "NCI/ADR-RES ovarian": {"tested_on": "NCI/ADR-RES ovarian"}, "COLO 205 colon": {"tested_on": "COLO 205 colon"}, "OVCAR-5 ovarian": {"tested_on": "OVCAR-5 ovarian"}, "SW-620 colon": {"tested_on": "SW-620 colon"}, "UACC-257 melanoma": {"tested_on": "UACC-257 melanoma"}, "IGROV1 ovarian": {"tested_on": "IGROV1 ovarian"}, "A549 NSCLC": {"tested_on": "A549 NSCLC"}, "RXF 393 renal": {"tested_on": "RXF 393 renal"}, "HCC-2998 colon": {"tested_on": "HCC-2998 colon"}, "MDA-MB-231 breast": {"tested_on": "MDA-MB-231 breast"}, "SF-539 CNS": {"tested_on": "SF-539 CNS"}, "MDA-N": {"tested_on": "MDA-N"}, "UACC-62 melanoma": {"tested_on": "UACC-62 melanoma"}, "KM12 colon": {"tested_on": "KM12 colon"}, "EKVX NSCLC": {"tested_on": "EKVX NSCLC"}, "SNB-19 CNS": {"tested_on": "SNB-19 CNS"}, "SR leukemia": {"tested_on": "SR leukemia"}}, "note": "Where “and” joins values, the source holds several entries; their conditions need not be identical. Identical values can stand only once.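 Tested at 5 concentrations; 48 h exposure; 96-well plates; endpoints linearly interpolated, else capped at highest concentration. Abbreviation: GI50, concentration required for 50% inhibition of growth. TGI: total growth inhibition.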"}
{"compound": "CC1=CC(=O)/C(=C/n2c(=S)[nH]c3ccc([N+](=O)[O-])cc32)C(=O)O1", "values": [{"measurement": "TGI", "setting": "OVCAR-8 ovarian", "result": "> 100", "unit": "µM"}, {"measurement": "TGI", "setting": "NCI/ADR-RES ovarian", "result": "> 100", "unit": "µM"}, {"measurement": "TGI", "setting": "COLO 205 colon", "result": "> 100", "unit": "µM"}, {"measurement": "TGI", "setting": "OVCAR-5 ovarian", "result": "> 100", "unit": "µM"}, {"measurement": "TGI", "setting": "SW-620 colon", "result": "> 100", "unit": "µM"}, {"measurement": "TGI", "setting": "UACC-257 melanoma", "result": "> 100", "unit": "µM"}, {"measurement": "TGI", "setting": "IGROV1 ovarian", "result": "> 100", "unit": "µM"}, {"measurement": "TGI", "setting": "A549 NSCLC", "result": "> 100", "unit": "µM"}, {"measurement": "TGI", "setting": "RXF 393 renal", "result": "> 100", "unit": "µM"}, {"measurement": "TGI", "setting": "HCC-2998 colon", "result": "> 100", "unit": "µM"}, {"measurement": "TGI", "setting": "MDA-MB-231 breast", "result": "> 100", "unit": "µM"}, {"measurement": "TGI", "setting": "SF-539 CNS", "result": "> 100", "unit": "µM"}, {"measurement": "TGI", "setting": "MDA-N", "result": "> 100", "unit": "µM"}, {"measurement": "TGI", "setting": "UACC-62 melanoma", "result": "> 100", "unit": "µM"}, {"measurement": "TGI", "setting": "KM12 colon", "result": "> 100", "unit": "µM"}, {"measurement": "TGI", "setting": "EKVX NSCLC", "result": "> 100", "unit": "µM"}, {"measurement": "TGI", "setting": "SNB-19 CNS", "result": "> 100", "unit": "µM"}, {"measurement": "TGI", "setting": "SR leukemia", "result": "> 100", "unit": "µM"}]}
{"compound": "c1cc(NC2=NCCO2)c2c(c1)OCO2", "values": [{"measurement": "TGI", "setting": "OVCAR-8 ovarian", "result": "> 100", "unit": "µM"}, {"measurement": "TGI", "setting": "NCI/ADR-RES ovarian", "result": "> 100", "unit": "µM"}, {"measurement": "TGI", "setting": "COLO 205 colon", "result": "> 100", "unit": "µM"}, {"measurement": "TGI", "setting": "OVCAR-5 ovarian", "result": "> 100", "unit": "µM"}, {"measurement": "TGI", "setting": "SW-620 colon", "result": "> 100", "unit": "µM"}, {"measurement": "TGI", "setting": "UACC-257 melanoma", "result": "> 100", "unit": "µM"}, {"measurement": "TGI", "setting": "IGROV1 ovarian", "result": "> 100", "unit": "µM"}, {"measurement": "TGI", "setting": "A549 NSCLC", "result": "> 100", "unit": "µM"}, {"measurement": "TGI", "setting": "RXF 393 renal", "result": "> 100", "unit": "µM"}, {"measurement": "TGI", "setting": "HCC-2998 colon", "result": "> 100", "unit": "µM"}, {"measurement": "TGI", "setting": "MDA-MB-231 breast", "result": "> 100", "unit": "µM"}, {"measurement": "TGI", "setting": "SF-539 CNS", "result": "> 100", "unit": "µM"}, {"measurement": "TGI", "setting": "MDA-N", "result": "> 100", "unit": "µM"}, {"measurement": "TGI", "setting": "UACC-62 melanoma", "result": "> 100", "unit": "µM"}, {"measurement": "TGI", "setting": "KM12 colon", "result": "> 100", "unit": "µM"}, {"measurement": "TGI", "setting": "EKVX NSCLC", "result": "> 100", "unit": "µM"}, {"measurement": "TGI", "setting": "SNB-19 CNS", "result": "> 100", "unit": "µM"}, {"measurement": "TGI", "setting": "SR leukemia", "result": "> 100", "unit": "µM"}]}
{"compound": "O=c1c(=[n+]2ccc(=C([O-])c3ccccc3)cc2)/c(=N/S(=O)(=O)c2ccccc2)c(=O)c2ccccc12", "values": [{"measurement": "TGI", "setting": "OVCAR-8 ovarian", "result": 26.7, "unit": "µM"}, {"measurement": "TGI", "setting": "NCI/ADR-RES ovarian", "result": 24.3, "unit": "µM"}, {"measurement": "TGI", "setting": "COLO 205 colon", "result": 27.2, "unit": "µM"}, {"measurement": "TGI", "setting": "OVCAR-5 ovarian", "result": 33.7, "unit": "µM"}, {"measurement": "TGI", "setting": "SW-620 colon", "result": 22, "unit": "µM"}, {"measurement": "TGI", "setting": "UACC-257 melanoma", "result": 23.9, "unit": "µM"}, {"measurement": "TGI", "setting": "IGROV1 ovarian", "result": 23, "unit": "µM"}, {"measurement": "TGI", "setting": "A549 NSCLC", "result": 29.8, "unit": "µM"}, {"measurement": "TGI", "setting": "RXF 393 renal", "result": 25.2, "unit": "µM"}, {"measurement": "TGI", "setting": "HCC-2998 colon", "result": 23.7, "unit": "µM"}, {"measurement": "TGI", "setting": "MDA-MB-231 breast", "result": 26.1, "unit": "µM"}, {"measurement": "TGI", "setting": "SF-539 CNS", "result": 25.9, "unit": "µM"}, {"measurement": "TGI", "setting": "MDA-N", "result": 3.27, "unit": "µM"}, {"measurement": "TGI", "setting": "UACC-62 melanoma", "result": 3.73, "unit": "µM"}, {"measurement": "TGI", "setting": "KM12 colon", "result": 28.3, "unit": "µM"}, {"measurement": "TGI", "setting": "EKVX NSCLC", "result": 27, "unit": "µM"}, {"measurement": "TGI", "setting": "SNB-19 CNS", "result": 26.7, "unit": "µM"}, {"measurement": "TGI", "setting": "SR leukemia", "result": 13.4, "unit": "µM"}]}
{"compound": "O=c1cc(-c2cccc(OCc3ccccc3)c2)[nH]c2cc3c(cc12)OCO3", "values": [{"measurement": "TGI", "setting": "OVCAR-8 ovarian", "result": 9.87, "unit": "µM"}, {"measurement": "TGI", "setting": "NCI/ADR-RES ovarian", "result": 0.462, "unit": "µM"}, {"measurement": "TGI", "setting": "COLO 205 colon", "result": "> 22.7", "unit": "µM"}, {"measurement": "TGI", "setting": "OVCAR-5 ovarian", "result": "> 100", "unit": "µM"}, {"measurement": "TGI", "setting": "SW-620 colon", "result": "> 100", "unit": "µM"}, {"measurement": "TGI", "setting": "UACC-257 melanoma", "result": "> 100", "unit": "µM"}, {"measurement": "TGI", "setting": "IGROV1 ovarian", "result": "> 100", "unit": "µM"}, {"measurement": "TGI", "setting": "A549 NSCLC", "result": "> 22.7", "unit": "µM"}, {"measurement": "TGI", "setting": "RXF 393 renal", "result": 8.15, "unit": "µM"}, {"measurement": "TGI", "setting": "HCC-2998 colon", "result": 0.751, "unit": "µM"}, {"measurement": "TGI", "setting": "MDA-MB-231 breast", "result": 9.03, "unit": "µM"}, {"measurement": "TGI", "setting": "SF-539 CNS", "result": 0.564, "unit": "µM"}, {"measurement": "TGI", "setting": "MDA-N", "result": 0.417, "unit": "µM"}, {"measurement": "TGI", "setting": "UACC-62 melanoma", "result": 12.3, "unit": "µM"}, {"measurement": "TGI", "setting": "KM12 colon", "result": "> 100", "unit": "µM"}, {"measurement": "TGI", "setting": "EKVX NSCLC", "result": "> 100", "unit": "µM"}, {"measurement": "TGI", "setting": "SNB-19 CNS", "result": 14.9, "unit": "µM"}, {"measurement": "TGI", "setting": "SR leukemia", "result": "> 100", "unit": "µM"}]}
{"compound": "CN(C)CCCN1c2ccccc2CCc2cc([N+](=O)[O-])ccc21", "values": [{"measurement": "TGI", "setting": "OVCAR-8 ovarian", "result": "71.8 µM and 30 µM"}, {"measurement": "TGI", "setting": "NCI/ADR-RES ovarian", "result": "82 µM and 39.8 µM"}, {"measurement": "TGI", "setting": "COLO 205 colon", "result": "60.1 µM and 32.4 µM"}, {"measurement": "TGI", "setting": "OVCAR-5 ovarian", "result": "63.9 µM and 31.8 µM"}, {"measurement": "GI50", "setting": "SW-620 colon", "result": "37.2 µM and 16.3 µM"}, {"measurement": "TGI", "setting": "SW-620 colon", "result": "> 100 µM and 32.6 µM"}, {"measurement": "TGI", "setting": "UACC-257 melanoma", "result": "38 µM and 29.5 µM"}, {"measurement": "TGI", "setting": "IGROV1 ovarian", "result": "53.2 µM and 29.8 µM"}, {"measurement": "TGI", "setting": "A549 NSCLC", "result": "70.2 µM and 37.7 µM"}, {"measurement": "TGI", "setting": "RXF 393 renal", "result": "32.8 µM and 26 µM"}, {"measurement": "TGI", "setting": "HCC-2998 colon", "result": "34.1 µM and 25.2 µM"}, {"measurement": "TGI", "setting": "MDA-MB-231 breast", "result": "52.7 µM and 30.2 µM"}, {"measurement": "TGI", "setting": "SF-539 CNS", "result": "74.5 µM and 31.4 µM"}, {"measurement": "TGI", "setting": "MDA-N", "result": "45.3 µM and 29.1 µM"}, {"measurement": "TGI", "setting": "UACC-62 melanoma", "result": "29.2 µM and 27.5 µM"}, {"measurement": "TGI", "setting": "KM12 colon", "result": "71 µM and 35.1 µM"}, {"measurement": "TGI", "setting": "EKVX NSCLC", "result": "> 100 µM and 37.4 µM"}, {"measurement": "TGI", "setting": "SNB-19 CNS", "result": "> 100 µM and 31.7 µM"}, {"measurement": "TGI", "setting": "SR leukemia", "result": "90.6 µM and 44 µM"}]}
